pIC50: −log10 of the molar value.
What was measured:
[1] = target: EGFR (Homo sapiens, UniProt P00533); assay: EGFR kinase HTRF assay; assay type: biochemical; settings: 0.5 μM ATP
Description: (§1) To determine inhibition of KDR, FGFR, EGFR, and PDGFR activity, kinase assays were conducted using an HTRF (Homogeneous Time Resolved Fluorescence) assay. This assay is described in A. J. Kolb et. al., Drug Discovery Today, 1998, 3(7), p 333.
(§2) Kinase activity assays were performed in 96-well polypropylene plates (Falcon) with a total volume of 90 μL in each well. Each well contained 1 μM KDR substrate (Biotin-EEEEYFELVAKKKK), 1 nM activated KDR, and a test compound with one of 8 assay concentrations ranging from 100 μM to […] (1:5 serial dilution). The kinase activity assay was done in the presence of 100 mM HEPES, pH 7.4, 1 mM DTT, 0.1 mM Na2VO4, 25 mM MgCl2, 50 mM NaCl (from KDR stock solution), 1% DMSO (from compound), 0.3 mM ATP (at Km concentration) and 0.02% BSA. The reaction was incubated at 37° C. for 30 minutes. To stop the KDR reaction, 72 μL of reaction mixture was transferred into a STOP plate containing 18 μL of revelation buffer (20 mM EDTA, 50 mM HEPES, pH 7.4, 0.02% BSA, 10 nM Eu-labelled anti-pY antibody (final conc. 2 nM), and 100 nM streptavidin (final conc. 20 nM)). After mixing, 35 μL of solution was transferred into duplicate wells of a 384-well black plate (Costar), and read at 615/665 nm on a Wallac Victor 5 reader.
(§3) The EGFR kinase activity assay was performed with 1 μM substrate (Biotin-EEEEYFELV), 1.5 nM EGFR, test compounds, 100 mM HEPES, pH 7.4, 1 mM DTT, 5 mM MgCl2, 2 mM MnCl2, 1% DMSO, 0.5 μM ATP (Km for EGFR), 0.1 mM Na2VO4, and 0.02% BSA. The rest of the assay was performed in the same manner as the KDR assay.
(§4) Compound IC50 values were determined from duplicate sets of data, and calculated by using Excel and fitting data to equation Y=[(a−b)/{1+(X/c)^d]+b, where a and b are enzyme activity in the presence of no test inhibitor compound and an infinite amount of inhibitor test compound, respectively, c is the IC50 and d is the hill constant of the compound response. The IC50 value is the concentration of test compound that reduces by 50% the enzyme activity under the test conditions described.

[2] = target: T1, FGFR; assay: FGFR kinase HTRF assay; assay type: biochemical; settings: 10 μM ATP
T1 construct: fused on or other part: GST tag
Description: as §1, §2
FGFR, EGFR, and PDGFR activity assays were carried out as described above for the KDR activity assay with the following differences. GST-tagged FGFR enzyme was activated at room temperature for 1 hour in the following activation buffer: 100 mM HEPES, pH 7.4, 50 mM NaCl, 20 mM MgCl2, and 4 mM ATP. The kinase activity assay was performed with 1 μM substrate (Biotin-EEEEYFELV), 1.5 nM activated FGFR, and test compound in the presence of 100 mM HEPES, 1 mM DTT, 0.4 mM MgCl2, 0.4 mM MnCl2, 50 mM NaCl, 1% DMSO, 10 μM ATP (Km=8.5 μM for FGFR), 0.1 mM Na2VO4, and 0.02% BSA, in a total volume of 90 μL. The rest of the assay was performed in the same manner as KDR assay.
as §4

[3] = test system: Human umbilical vein endothelial cells; assay: VEGF-stimulated HUVEC proliferation assay (BrdU); assay type: cell-based; settings: VEGF 20 ng per mL, BrdU labeling, read-out: HUVEC/VEFG IC50
Description: (§5) The antiproliferative activity of test-compounds of this invention in cell-based assays was evaluated by BrdU assay using the BrdU kit (Roche Biochemicals 1-647-229). Human umbilical vein endothelial cells (Clonetics CC-2519) were cultured in EGM-2 (Clonetics CC-3162) medium and seeded at 10000 cells per well in a volume of 200 μL of EGM-2 (Clonetics CC-3162) media in a 96-well flat bottom plates (Costar 3595) overnight. After 24 hours of growth at 37° C. with 5% CO2, the incubation media was removed slowly by aspiration and the content of each well was washed with 300 μL pre-warmed EBM-2 (Clonetics CC-3156) containing 50 μg per mL of gentamycin and 50 ng per mL of amphotercin-B (Clonetics CC-4083). […]
(§6) After 24 hour exposure to the test compounds, the cells were labeled with BrdU (Roche Biochemicals 1-647-229), by adding 20 μL per well of BrdU labeling reagent that has been diluted (1:100) in serum starvation medium. […] The plates were read at 450 nm with reference wavelength of 650 nm. The percent inhibition for each test compound was calculated by subtracting the absorbency of the blank (no cells) wells from all wells, then subtracting the division of the average absorbency of each test duplicate by the average of the controls from 1. […] The IC50 is determined from the linear regression of a plot of the logarithm of the concentration versus percent inhibition.

[4] = target: PDGFR; assay: PDGFR kinase HTRF assay; assay type: biochemical; settings: 2.3 μM ATP
Description: as §1, §2
as §3, with “PDGFR” for “EGFR”, “1.0” for “1.5”, “PDGFR,” for “EGFR,”, “2.3” for “0.5”, “PDGFR),” for “EGFR),”
as §4

[5] = test system: Human umbilical vein endothelial cells; assay: FGF-stimulated HUVEC proliferation assay (BrdU); assay type: cell-based; settings: FGF 5 ng per mL, BrdU labeling, read-out: HUVEC/bFGFR IC50
Description: as §5, §6

[6] = target: T2, KDR (Homo sapiens, UniProt P35968); assay: KDR kinase HTRF assay; assay type: biochemical; settings: 0.3 mM ATP
T2 construct: EEE tag
Description: as §1
Prior to kinase reaction, recombinant EEE-tagged KDR was activated in the presence of activation buffer (50 mM HEPES, pH 7.4, 1 mM DTT, 10% glycerol, 150 mM NaCl, 0.1 mM EDTA, 26 mM MgCl2, and 4 mM ATP). The enzyme was incubated at 4° C. for 1 hour.
as §2, §4

Measured: pIC50

EGFR, sequence (P00533 25-1210, species assumed): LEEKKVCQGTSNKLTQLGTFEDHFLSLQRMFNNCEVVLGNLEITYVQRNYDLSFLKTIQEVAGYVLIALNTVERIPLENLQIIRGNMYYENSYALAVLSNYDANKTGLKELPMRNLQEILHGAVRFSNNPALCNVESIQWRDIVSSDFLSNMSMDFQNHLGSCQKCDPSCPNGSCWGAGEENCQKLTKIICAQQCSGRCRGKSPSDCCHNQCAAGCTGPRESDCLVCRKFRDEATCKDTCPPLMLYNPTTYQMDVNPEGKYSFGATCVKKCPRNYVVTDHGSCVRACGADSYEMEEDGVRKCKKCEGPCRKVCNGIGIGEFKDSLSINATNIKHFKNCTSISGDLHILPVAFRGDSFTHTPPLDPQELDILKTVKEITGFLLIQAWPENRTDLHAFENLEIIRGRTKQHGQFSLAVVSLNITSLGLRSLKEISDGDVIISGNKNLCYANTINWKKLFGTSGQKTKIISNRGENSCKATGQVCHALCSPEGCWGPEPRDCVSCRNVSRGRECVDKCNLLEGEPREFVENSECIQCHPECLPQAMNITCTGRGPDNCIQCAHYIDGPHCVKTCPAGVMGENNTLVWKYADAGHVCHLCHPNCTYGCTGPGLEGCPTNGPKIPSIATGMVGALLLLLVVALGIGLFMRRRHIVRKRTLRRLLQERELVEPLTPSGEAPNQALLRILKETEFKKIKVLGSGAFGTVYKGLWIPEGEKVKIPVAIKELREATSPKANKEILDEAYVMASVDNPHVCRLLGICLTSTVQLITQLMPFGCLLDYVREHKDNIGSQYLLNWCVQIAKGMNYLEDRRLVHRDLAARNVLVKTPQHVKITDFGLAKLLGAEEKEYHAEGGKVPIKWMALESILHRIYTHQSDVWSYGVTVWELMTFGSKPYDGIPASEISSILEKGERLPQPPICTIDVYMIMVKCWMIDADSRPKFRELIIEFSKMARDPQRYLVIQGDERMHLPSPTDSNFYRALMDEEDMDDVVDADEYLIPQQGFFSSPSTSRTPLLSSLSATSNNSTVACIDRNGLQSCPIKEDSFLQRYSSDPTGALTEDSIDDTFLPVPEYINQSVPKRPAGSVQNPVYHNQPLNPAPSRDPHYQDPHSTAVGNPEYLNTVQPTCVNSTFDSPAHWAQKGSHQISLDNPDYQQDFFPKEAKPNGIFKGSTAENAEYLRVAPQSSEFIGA
T2 sequence (P35968 20-1356): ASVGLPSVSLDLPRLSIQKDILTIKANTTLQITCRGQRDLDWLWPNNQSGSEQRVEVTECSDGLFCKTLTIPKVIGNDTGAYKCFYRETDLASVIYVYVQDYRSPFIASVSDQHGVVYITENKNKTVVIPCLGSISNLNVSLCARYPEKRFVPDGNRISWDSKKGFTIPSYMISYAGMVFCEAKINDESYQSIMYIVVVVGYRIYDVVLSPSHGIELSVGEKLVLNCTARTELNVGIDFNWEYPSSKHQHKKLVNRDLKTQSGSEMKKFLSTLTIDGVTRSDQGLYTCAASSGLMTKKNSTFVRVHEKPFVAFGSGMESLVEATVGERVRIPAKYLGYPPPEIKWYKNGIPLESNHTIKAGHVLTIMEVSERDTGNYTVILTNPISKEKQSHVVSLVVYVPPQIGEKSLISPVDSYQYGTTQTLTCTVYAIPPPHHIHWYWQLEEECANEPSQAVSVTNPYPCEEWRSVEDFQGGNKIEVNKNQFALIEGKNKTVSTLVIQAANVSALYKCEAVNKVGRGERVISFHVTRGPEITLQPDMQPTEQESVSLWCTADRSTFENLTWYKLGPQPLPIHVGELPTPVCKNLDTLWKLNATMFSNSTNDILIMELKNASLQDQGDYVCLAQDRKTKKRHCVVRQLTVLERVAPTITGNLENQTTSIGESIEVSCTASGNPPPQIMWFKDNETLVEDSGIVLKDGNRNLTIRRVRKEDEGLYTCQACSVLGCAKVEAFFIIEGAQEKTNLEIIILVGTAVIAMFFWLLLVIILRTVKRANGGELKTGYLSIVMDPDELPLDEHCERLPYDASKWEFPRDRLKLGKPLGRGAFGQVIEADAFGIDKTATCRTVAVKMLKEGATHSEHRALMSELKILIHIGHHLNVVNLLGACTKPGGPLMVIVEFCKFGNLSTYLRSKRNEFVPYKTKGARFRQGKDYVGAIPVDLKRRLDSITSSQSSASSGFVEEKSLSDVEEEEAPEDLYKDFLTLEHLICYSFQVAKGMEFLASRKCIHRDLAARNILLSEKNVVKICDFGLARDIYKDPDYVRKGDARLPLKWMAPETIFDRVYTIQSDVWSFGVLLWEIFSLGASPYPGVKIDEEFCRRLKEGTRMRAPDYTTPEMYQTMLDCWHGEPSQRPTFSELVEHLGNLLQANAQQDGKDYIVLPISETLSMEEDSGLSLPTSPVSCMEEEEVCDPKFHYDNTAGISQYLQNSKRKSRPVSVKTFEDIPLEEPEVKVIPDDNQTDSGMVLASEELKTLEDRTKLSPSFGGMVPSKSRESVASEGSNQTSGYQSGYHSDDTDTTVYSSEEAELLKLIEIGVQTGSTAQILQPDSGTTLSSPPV

COc1cc(OC)cc(C2Cc3cnc(Nc4ccccc4)nc3N(c3ccccc3)C2=O)c1 (stereo not drawn) [Example 3d, 6-(3,5-Dimethoxy-phenyl)-8-phenyl-2-phenylamino-5,8-dihydro-6H-pyrido[2,3-d]pyrimidin-7-one]
> 5.00: all assays above
